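Tested at 5 concentrations; 48 h exposure; 96-well plates; endpoints linearly interpolated, else capped at highest concentration. The concentration for 50% growth inhibition is given as GI50.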 Activity calls are given as the source filed them. No stated cut-off is given here; in the data, active = GI50 up to about 1.1 µM and inactive = higher.
How the values were obtained:
Test in all cases: NCI anticancer screen, dose series, 48 h
[1] = test system: DLD-1
[2] = test system: RXF 631
[3] = test system: KM-20L2
[4] = test system: DMS-273
[5] = test system: HOP-18
[6] = test system: M19-MEL
[7] = test system: XF498
[8] = test system: SNB-78
[9] = test system: DMS-114

| SMILES | GI50 [1] | GI50 [2] | GI50 [3] | GI50 [4] | GI50 [5] | GI50 [6] | GI50 [7] | GI50 [8] | GI50 [9] |
| --- | --- | --- | --- | --- | --- | --- | --- | --- | --- |
| CN(CC(=O)O)S(=O)(=O)c1ccc(F)cc1 | > 100 µM (inactive) | > 100 µM (inactive) | > 100 µM (inactive) | > 100 µM (inactive) | > 100 µM (inactive) | > 100 µM (inactive) | > 100 µM (inactive) |  |  |
| Cc1ccc(NC(=O)c2cccc([N+](=O)[O-])c2O)c([N+](=O)[O-])c1 | 14.9 µM (inactive) | 12.3 µM (inactive) | 18.7 µM (inactive) | 11.7 µM (inactive) | 19.2 µM (inactive) | 14.3 µM (inactive) | 20.8 µM (inactive) | 19.4 µM (inactive) | 12.6 µM (inactive) |
| CC(=O)N(CCN1C(=O)c2ccccc2C1=O)CCN1C(=O)c2ccccc2C1=O | > 100 µM (inactive) |  | > 100 µM (inactive) | > 100 µM (inactive) |  | > 100 µM (inactive) | > 100 µM (inactive) | > 100 µM (inactive) | > 100 µM (inactive) |
| C[n+]1cccc(NC(=O)c2ccc(NC(=O)C34CCC(C(=O)Nc5ccc(C(=O)Nc6ccc[n+](C)c6)cc5)(CC3)CC4)cc2)c1 | 10.9 µM (inactive) |  | > 100 µM (inactive) | 6.82 µM (inactive) | 25.2 µM (inactive) | 54.1 µM (inactive) |  | > 100 µM (inactive) | 13.8 µM (inactive) |
| COC(=O)N/N=C(/Cc1occc(=O)c1O)C(=O)Nc1ccc([N+](=O)[O-])cc1[N+](=O)[O-] | > 100 µM (inactive) |  | > 100 µM (inactive) | > 100 µM (inactive) | > 100 µM (inactive) | > 100 µM (inactive) | > 100 µM (inactive) | > 100 µM (inactive) | > 100 µM (inactive) |
| COc1ccc(C2ON(c3ccccc3)CC=C2C)cc1 (stereo not given) | 79.8 µM (inactive) | 46.6 µM (inactive) | 5.48 µM (inactive) | 64.7 µM (inactive) |  | 43.2 µM (inactive) | 95.7 µM (inactive) | > 100 µM (inactive) |  |
| COCC(O)CN1C(N)=NC(O)C1O (stereo not given) | > 100 µM (inactive) |  | > 100 µM (inactive) | > 10 µM (inactive) | > 100 µM (inactive) | > 100 µM (inactive) |  | > 100 µM (inactive) | > 100 µM (inactive) |
| CC(=O)OC1COC(N2C(=O)C(=O)c3cc(Br)c([N+](=O)[O-])cc32)C(OC(C)=O)C1OC(C)=O (stereo not given) | 34.4 µM (inactive) | 48.5 µM (inactive) | > 100 µM (inactive) | > 100 µM (inactive) | > 100 µM (inactive) | 21.2 µM (inactive) | 35.9 µM (inactive) | > 100 µM (inactive) | 24.7 µM (inactive) |
| COc1ccc(-c2cc(=O)c3ccccc3o2)cc1N |  | 42.3 µM (inactive) | 34.1 µM (inactive) | 41.3 µM (inactive) | 17.7 µM (inactive) | 86.1 µM (inactive) | 18.2 µM (inactive) | 68.4 µM (inactive) | 34 µM (inactive) |
| O/N=C(\c1nc2ccc(Cl)cc2nc1O)C(O)c1ccc(Cl)cc1Cl (stereo not given) | > 100 µM (inactive) | > 100 µM (inactive) | > 100 µM (inactive) | > 100 µM (inactive) |  | > 100 µM (inactive) | > 100 µM (inactive) | > 100 µM (inactive) | > 100 µM (inactive) |
| COc1ccc(/C=[N+](\[O-])[C@H](COCc2ccccc2)c2ccccc2)cc1 | 89.1 µM (inactive) | > 100 µM (inactive) | > 100 µM (inactive) | > 100 µM (inactive) | 57.4 µM (inactive) |  | > 100 µM (inactive) | > 100 µM (inactive) | > 100 µM (inactive) |
| CCCC(=O)OC[n+]1ccc2c(C)c3[nH]c4ccc(OC)cc4c3c(C)c2c1 | 0.196 µM (active) |  | 0.226 µM (active) | 0.0586 µM (active) |  | 0.555 µM (active) |  | 0.594 µM (active) | 0.47 µM (active) |
| COc1cc(C2C(C(=O)Nc3cc(F)c(F)cc3F)=C(C)NC(C)=C2C(=O)Nc2cc(F)c(F)cc2F)ccc1O | 21.5 µM (inactive) | 15 µM (inactive) | 32 µM (inactive) |  |  | 23.4 µM (inactive) | 4.66 µM (inactive) | 22.5 µM (inactive) | 14 µM (inactive) |
| CCCCN1C(=O)C2c3[nH]c4ccccc4c3C3CCCCC3C2C1=O.CCCCN1C(=O)C2c3[nH]c4ccccc4c3[C@@H]3CCCCC3C2C1=O (stereo not given) | 12.9 µM (inactive) | 13.7 µM (inactive) | 36.6 µM (inactive) | 10.3 µM (inactive) | 2.26 µM (inactive) | 37.2 µM (inactive) | 12.5 µM (inactive) | 15 µM (inactive) | 12.9 µM (inactive) |
| O=C(O)c1ccc([N+](=O)[O-])c2c(=O)c3ccccc3[nH]c12 | > 100 µM (inactive) | > 100 µM (inactive) | > 100 µM (inactive) | > 100 µM (inactive) | > 100 µM (inactive) | > 100 µM (inactive) |  | > 100 µM (inactive) | > 100 µM (inactive) |
| O=C(Nc1nc2ccc([N+](=O)[O-])cc2s1)C(=O)C(C1OC(=O)c2ccccc21)[N+](=O)[O-] (stereo not given) | 64.6 µM (inactive) | 70.1 µM (inactive) | > 100 µM (inactive) |  |  | > 100 µM (inactive) | 27.6 µM (inactive) | 85.5 µM (inactive) |  |
| CC(C(=O)[O-])S(=O)(=O)O.CCc1c2cc(OC)c(OC)cc2cc2c3cc(OC)c(OC)cc3cc[n+]12 | 65 µM (inactive) |  | > 100 µM (inactive) | 45.2 µM (inactive) | 68.1 µM (inactive) | 13.6 µM (inactive) | 5.64 µM (inactive) | 33.7 µM (inactive) | 7.83 µM (inactive) |
| O=c1cccccc1NCCCNc1cccccc1=O |  | 31 µM (inactive) | > 100 µM (inactive) | > 100 µM (inactive) |  | > 100 µM (inactive) | > 100 µM (inactive) | > 100 µM (inactive) | > 100 µM (inactive) |
| CC(=O)OC(=O)O/C=C\CCl | > 100 µM (inactive) | > 100 µM (inactive) | > 100 µM (inactive) | 62.8 µM (inactive) | > 100 µM (inactive) | > 100 µM (inactive) |  | > 100 µM (inactive) | > 100 µM (inactive) |
| C/C(CC(=O)Nc1ccc(Cl)c(Cl)c1)=N/NC(=O)C[n+]1ccccc1 |  |  | 76.9 µM (inactive) | 40.9 µM (inactive) | > 100 µM (inactive) | > 100 µM (inactive) | > 100 µM (inactive) | > 100 µM (inactive) | 28.4 µM (inactive) |
| Cc1ccc(NC(=O)CCc2nnc3s/c(=C\c4cccc([N+](=O)[O-])c4)c(=O)n23)cc1 | > 100 µM (inactive) | 60 µM (inactive) | > 100 µM (inactive) | > 100 µM (inactive) | > 100 µM (inactive) | > 100 µM (inactive) | > 100 µM (inactive) | > 100 µM (inactive) | > 100 µM (inactive) |
